Results as given in US20060252727A1, “Medicinal compositions and therapeutic methods for treating arthritis and other painful conditions” (priority 2001, published 2006).
Marks after values point to notes of the source that are not given here.

Tests used:
[1] = tested on: carrageenan swelling of the rat paw; experiment: Anti-inflammatory activity, rat paw carrageenan method; assay type: in vivo
Description: Anti-inflammatory activity of DPA using the rat paw carrageenan method. This is a generally recognized method for evaluating anti-inflammatory drugs of the aspirin/NSAID (as used throughout this application NSAID refers to a non-steroidal, anti-inflammatory drug) type or those that counteract the action of the prostaglandins. Such drugs are useful for treating conditions such as arthritis in animals and humans. In this method, the paw of the rat is injected with carrageenan, which causes swelling of the paw due to the accumulation of fluid. […] In this study, DPA was administered by various routes and times into groups of rats (6 male albino rats per group-weight approximately 250 grams) before carrageenan and the degree of swelling was measured by the extent of displacement of water when the paw was immersed into a calibrated cylinder. A placebo consisting of saline solution was similarly administered.

PBQ writhing in mice [2] = experiment: Anti-inflammatory activity, mouse phenylbenzylquinone (PBQ) writhing test; assay type: in vivo; conditions: for Number of writhes: counted over 20 minutes
Description: Anti-inflammatory activity of DPA using the mouse phenylbenzylquinone (PBQ) writhing test. This is a generally recognized method for evaluating anti-inflammatory drugs of the aspirin/NSAID type, i.e. those drugs which counteract the action of the prostaglandins. Such drugs are useful for treating conditions such as arthritis in animals and humans.
In this method, a solution of PBQ was injected subcutaneously into groups of 6 mice (male, albino, 22-25 grams). Within a few minutes, the mice began to writhe. DPA was injected intra-peritoneally or given by mouth at different times prior to PBQ. The number of writhes was counted over a period of 20 minutes. The effects of DPA were compared to that of similarly administered saline control.

[3] = tested on: mouse hot plate jumping threshold; experiment: Analgesic activity, mouse hot plate test; assay type: in vivo
From the text: Analgesic activity of DPA using the mouse hot plate test. The mouse hot plate is a generally recognized method for evaluating analgesic drugs that act on the endorphin system, e.g., morphine-like drugs and drugs that increase endorphin levels, e.g., DPA. Such drugs are useful for treating many kinds of painful conditions, including arthritis, headache, low back pain, musculoskeletal pain, pre-menstrual pain, and dental pain.
In this method, groups of mice (6 albino mice per group, weighing between 22 and 25 grams) are individually placed on a hot plate at 55° C. and a beaker is placed over the mouse. The time for the mouse to jump in an attempt to escape the painful condition is recorded. An analgesic substance is one which increases the threshold to pain, thereby permitting the mouse to remain on the hot plate for longer times. The effect of the drug is compared to that of a saline control. DPA at different doses was injected intra-peritoneally into the mice 2 hours before they were placed on the hot plate, and jumping time determined over the next 1-2 hours. The effect of DPA was compared with that of an injection of saline.
For studies involving combinations of drugs, the combination was injected at the same time. In the studies shown below, the second drug consisted of indomethacin, diclofenac, or acetaminophen. Each of these drugs is used for treating arthritis, as well as many other painful conditions.

[4] = tested on: pain in patients with arthritis and other skeletal diseases; experiment: Efficacy of DPA in humans with arthritis and other musculoskeletal diseases (open-label, cross-over); assay type: in vivo, human
Description: 4. Efficacy of DPA treatment for arthritis and a variety of other musculoskeletal diseases; human studies. Forty-three patients were studied in an open-label, cross-over procedure. Of these, 32 had arthritis. All of the patients had previously been given many treatments, without success, in relieving their pain. Pre-DPA administration treatments used included such potent drugs as Percodan, Darvocet, Valium, and aspirin, as well as acupuncture. Prior to giving DPA 800 mg/day by mouth, all treatments were stopped. Patients were given a card on which they scored their degree of pain, on a scale of 1-4; 1 indicated no relief, 2 indicated approximately 25% relief, 3 indicated approximately 50% relief, and 4 indicated complete relief.

PBQ writhing in mice [5] = experiment: Anti-inflammatory activity, mouse phenylbenzylquinone (PBQ) writhing test; assay type: in vivo; conditions: for Number of writhes: counted over 20 minutes; remark: listed apart in the source
[6] = DPA 800 mg/day by mouth, 43 patients, 32 with arthritis, self-scored pain relief
[7] = NSAID alone, 20 mg/kg, hot plate at 55° C.

N[C@H](Cc1ccccc1)C(=O)O [DPA, D-phenylalanine]
% Inhibition of swelling ([1]; oral administration, 150 minutes before carrageenan, 125 mg/kg): 7%
% Inhibition of swelling ([1]; oral administration, 150 minutes before carrageenan, 250 mg/kg): 10%
% Inhibition of swelling ([1]; oral administration, 150 minutes before carrageenan, 500 mg/kg): 24%
% Inhibition of swelling ([1]; oral administration, 150 minutes before carrageenan, 1000 mg/kg): 62%
% Inhibition of swelling ([1]; oral administration, 150 minutes before carrageenan, 1500 mg/kg): 79%
% Inhibition of swelling ([1]; subcutaneous injection, 120 minutes before carrageenan, 8 mg/kg): 15%
% Inhibition of swelling ([1]; subcutaneous injection, 120 minutes before carrageenan, 125 mg/kg): 37%
% Inhibition of swelling ([1]; subcutaneous injection, 120 minutes before carrageenan, 500 mg/kg): 35%
% Inhibition of swelling ([1]; subcutaneous injection, 6 hours before carrageenan, dose 62.5): 35%
% Inhibition of swelling ([1]; subcutaneous injection, 6 hours before carrageenan, dose 250): 36%
% Inhibition of swelling ([1]; subcutaneous injection, 6 hours before carrageenan, dose 500): 75%
% inhibition of writhing (PBQ writhing in mice [2]; intra-peritoneal injection, 2 hours before PBQ, 250 mg/kg): 73%
Number of writhes (PBQ writhing in mice [2]; intra-peritoneal injection, 2 hours before PBQ, 250 mg/kg, saline 125): 34
% inhibition of writhing (PBQ writhing in mice [2]; intra-peritoneal injection, 2 hours before PBQ, 500 mg/kg): 90%
Number of writhes (PBQ writhing in mice [2]; intra-peritoneal injection, 2 hours before PBQ, 500 mg/kg, saline 125): 13
% inhibition of writhing (PBQ writhing in mice [2]; oral administration, 2.5 hours before PBQ, 250 mg/kg): 10%
Number of writhes (PBQ writhing in mice [2]; oral administration, 2.5 hours before PBQ, 250 mg/kg, saline 148): 133
Number of writhes (PBQ writhing in mice [2]; oral administration, 2.5 hours before PBQ, 500 mg/kg, saline 148): 110
% inhibition of writhing (PBQ writhing in mice [2]; oral administration, 2.5 hours before PBQ, 1000 mg/kg): 62%
Number of writhes (PBQ writhing in mice [2]; oral administration, 2.5 hours before PBQ, 1000 mg/kg, saline 148): 56
Increase in the threshold to jumping, compared to control ([3]; DPA 250 mg/kg intra-peritoneally, 2 hours before hot plate at 55° C.): 3-fold
increase of the threshold time to jump, as compared to saline control ([3]; mouse hot plate, as shown in Table 3): three-fold
Complete relief of pain (number of patients) [4, 6]: 2
Excellent relief of pain (number of patients) [4, 6]: 7
Moderate relief of pain (number of patients) [4, 6]: 19
No relief of pain (number of patients) ([4]; DPA 800 mg/day by mouth, 43 patients, most of these took DPA for only 1-2 weeks): 15*
effect on pain in humans ([4]; DPA alone, 800 mg/day): successfully decrease
% inhibition of writhing (PBQ writhing in mice [5]; oral administration, 2.5 hours before PBQ, 500 mg/kg): 24%
% inhibition of writhing (PBQ writhing in mice [5]; subcutaneous injection, 6 hours before PBQ, 62.5 mg/kg): 35%
Number of writhes (PBQ writhing in mice [5]; subcutaneous injection, 6 hours before PBQ, 62.5 mg/kg, saline 166): 108
% inhibition of writhing (PBQ writhing in mice [5]; subcutaneous injection, 6 hours before PBQ, 250 mg/kg): 36%
Number of writhes (PBQ writhing in mice [5]; subcutaneous injection, 6 hours before PBQ, 250 mg/kg, saline 166): 106
% inhibition of writhing (PBQ writhing in mice [5]; subcutaneous injection, 6 hours before PBQ, 500 mg/kg): 75%
Number of writhes (PBQ writhing in mice [5]; subcutaneous injection, 6 hours before PBQ, 500 mg/kg, saline 110): 28

O=C(O)Cc1ccccc1Nc1c(Cl)cccc1Cl [Diclofenac, diclofenac, reference compound]
Increase in the threshold to jumping, compared to control [3, 7]: 0

COc1ccc2c(c1)c(CC(=O)O)c(C)n2C(=O)c1ccc(Cl)cc1 [Indomethacin, indomethacin, reference compound]
Increase in the threshold to jumping, compared to control [3, 7]: 0
